Measured values from ChEMBL document CHEMBL1201862, “PubChem BioAssay data set” (2004).
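Step 1: Grow cells in 96-well plates. Step 2: Expose to compound for 48 hours at 5 concentrations. Step 3: Interpolate endpoints linearly; if unreached, use highest concentration. Abbreviation: GI50, concentration required for 50% inhibition of growth.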 Calls of active or inactive are those of the source. Rule as the data show it: active = GI50 up to about 1.1 µM and inactive = higher.

Tests used:
Test in all cases: DTP human tumour cell line panel, 48 h
ACHN = tested on: ACHN
CAKI-1 = tested on: CAKI-1
OVCAR-5 = tested on: OVCAR-5
UACC-62 = tested on: UACC-62
HOP-92 = tested on: HOP-92
SK-MEL-2 = tested on: SK-MEL-2
COLO 205 = tested on: COLO 205
UO-31 = tested on: UO-31
SN12C = tested on: SN12C
KM12 = tested on: KM12
HCC 2998 = tested on: HCC 2998
SNB-19 = tested on: SNB-19
HOP-62 = tested on: HOP-62
RPMI-8226 = tested on: RPMI-8226
SNB-75 = tested on: SNB-75
NCI-H460 = tested on: NCI-H460
SK-OV-3 = tested on: SK-OV-3
CCRF-CEM = tested on: CCRF-CEM
T47D = tested on: T47D
DU-145 = tested on: DU-145

Compound | GI50 (ACHN) | GI50 (CAKI-1) | GI50 (OVCAR-5) | GI50 (UACC-62) | GI50 (HOP-92) | GI50 (SK-MEL-2) | GI50 (COLO 205) | GI50 (UO-31) | GI50 (SN12C) | GI50 (KM12) | GI50 (HCC 2998) | GI50 (SNB-19) | GI50 (HOP-62) | GI50 (RPMI-8226) | GI50 (SNB-75) | GI50 (NCI-H460) | GI50 (SK-OV-3) | GI50 (CCRF-CEM) | GI50 (T47D) | GI50 (DU-145)
O=S(=O)(C/C(=N\O)c1ccccc1)c1ccccc1 | > 100 µM (inactive) | > 100 µM (inactive) | > 100 µM (inactive) | > 100 µM (inactive) | > 100 µM (inactive) | > 100 µM (inactive) | > 100 µM (inactive) | > 100 µM (inactive) | > 100 µM (inactive) | > 100 µM (inactive) | > 100 µM (inactive) | > 100 µM (inactive) | > 100 µM (inactive) | > 100 µM (inactive) | > 100 µM (inactive) | > 100 µM (inactive) | > 100 µM (inactive) | > 100 µM (inactive) | – | –
CC(=O)C1C(=O)C(=O)N(c2ccccc2C(C)C)C1=O (stereo not given) | > 100 µM (inactive) | > 100 µM (inactive) | > 100 µM (inactive) | > 100 µM (inactive) | > 100 µM (inactive) | > 100 µM (inactive) | > 100 µM (inactive) | > 100 µM (inactive) | > 100 µM (inactive) | > 100 µM (inactive) | > 100 µM (inactive) | > 100 µM (inactive) | > 100 µM (inactive) | > 100 µM (inactive) | > 100 µM (inactive) | > 100 µM (inactive) | > 100 µM (inactive) | > 100 µM (inactive) | – | –
CCc1cc2c(cc1O)CC[C@@H]1[C@@H]2CC[C@]2(C)[C@@H](O)CC[C@@H]12 | 8.81 µM (inactive) | 4.67 µM (inactive) | 20.3 µM (inactive) | > 10 µM (inactive) | – | 9.82 µM (inactive) | 17.5 µM (inactive) | 9.08 µM (inactive) | – | 6.19 µM (inactive) | 10.2 µM (inactive) | 6.34 µM (inactive) | 6.14 µM (inactive) | – | 1.9 µM (inactive) | 5.42 µM (inactive) | 11.7 µM (inactive) | 5.6 µM (inactive) | 7.48 µM (inactive) | –
Nc1nc2cc(CNc3ccc(C(=O)O)cc3)ccc2nc1-c1ccccc1 | > 100 µM (inactive) | – | > 100 µM (inactive) | > 10 µM (inactive) | – | > 100 µM (inactive) | > 100 µM (inactive) | 86.5 µM (inactive) | > 100 µM (inactive) | – | > 100 µM (inactive) | > 100 µM (inactive) | > 100 µM (inactive) | > 100 µM (inactive) | 66.5 µM (inactive) | > 100 µM (inactive) | > 100 µM (inactive) | > 100 µM (inactive) | 35.1 µM (inactive) | 44.6 µM (inactive)
COc1ccc(-n2cnn3c(=O)c4cn[nH]c4nc23)cc1 | > 10 µM (inactive) | – | > 10 µM (inactive) | – | 0.748 µM (active) | – | – | > 10 µM (inactive) | > 10 µM (inactive) | > 10 µM (inactive) | > 10 µM (inactive) | > 10 µM (inactive) | – | – | > 10 µM (inactive) | > 10 µM (inactive) | 1.49 µM (inactive) | > 10 µM (inactive) | – | > 10 µM (inactive)
COc1ccc(COC2CC(OC)OC(C)C2OC(=O)c2ccccc2)cc1 (stereo not given) | 24.3 µM (inactive) | 36.5 µM (inactive) | 30.2 µM (inactive) | 32.9 µM (inactive) | 50 µM (inactive) | 54 µM (inactive) | 34.6 µM (inactive) | 22.7 µM (inactive) | 57.4 µM (inactive) | 34.8 µM (inactive) | 43.1 µM (inactive) | > 64.9 µM (inactive) | > 73.5 µM (inactive) | 18.5 µM (inactive) | 38.3 µM (inactive) | 36.7 µM (inactive) | > 100 µM (inactive) | 30.3 µM (inactive) | – | –
CCOC(=O)/C(=C/c1cccc(Cl)c1)N(CC)CC | 35.5 µM (inactive) | 50.5 µM (inactive) | > 100 µM (inactive) | 33.9 µM (inactive) | 25.5 µM (inactive) | 29.6 µM (inactive) | > 100 µM (inactive) | 37.1 µM (inactive) | 45.9 µM (inactive) | 39.1 µM (inactive) | 79.1 µM (inactive) | – | 29.9 µM (inactive) | 36.7 µM (inactive) | 70.5 µM (inactive) | 46.5 µM (inactive) | 35.1 µM (inactive) | 43.1 µM (inactive) | – | –
Cn1cc(C(=O)c2ccccc2)cc(C(=O)c2ccccc2)c1=O | > 100 µM (inactive) | > 100 µM (inactive) | > 100 µM (inactive) | > 100 µM (inactive) | > 100 µM (inactive) | > 100 µM (inactive) | > 100 µM (inactive) | > 100 µM (inactive) | > 100 µM (inactive) | > 100 µM (inactive) | > 100 µM (inactive) | > 100 µM (inactive) | > 100 µM (inactive) | > 100 µM (inactive) | > 100 µM (inactive) | > 100 µM (inactive) | > 100 µM (inactive) | > 100 µM (inactive) | – | –
